In ChEMBL document CHEMBL4831514, “Novel betulin dicarboxylic acid ester derivatives as potent antiviral agents: Design, synthesis, biological evaluation, structure-activity relationship and in-silico study” (Eur J Med Chem, 2021):
Active and inactive are the calls of the source. No cut-off for these calls is given here.

Tests used:
Human alphaherpesvirus 1 [1] = assay: (§1) Potency index, ratio of acyclovir EC50 to test compound EC50 for antiviral activity against Human herpesvirus 1 MacIntyre infected in A549 cells assessed as reduction in virus titer treated 1 hr post viral infection followed by replacement with fresh medium with compounds and measured after 48 hrs by MTT assay; assay type: functional
MDCK = assay: (§2) Cytotoxicity against MDCK cells assessed as reduction in cell viability incubated for 72 hrs by MTT assay; assay type: cell-based, Canis lupus familiaris; details: dog, mdck, 72 h
[2] = test system: Vesicular stomatitis virus; assay: Antiviral activity against Vesicular stomatitis virus Indiana infected in A549 cells assessed as reduction in virus titer preincubated for 24 hrs followed by viral infection and measured after 72 hrs by microscopic analysis; assay type: functional, organism-based
Enterovirus E [3] = assay: Antiviral activity against Enterovirus E LCR-4 infected in A549 cells assessed as inhibition of viral adsorption at early stage of replication treated for 1 hr during viral infection followed by replacement with fresh medium and measured after 72 hrs by MTT assay; assay type: functional, organism-based
Human adenovirus 5 [4] = assay: Antiviral activity against Human adenovirus 5 Adenoid 75 infected in A549 cells assessed as reduction in virus titer preincubated for 24 hrs followed by viral infection and measured after 72 hrs by microscopic analysis; assay type: functional, organism-based
A549 = assay: (§3) Cytotoxicity against human A549 cells assessed as reduction in cell viability incubated for 48 hrs by MTT assay; assay type: cell-based; details: a549, 48 h
[5] = as §3; assay type: cell-based; details: A549 cells
Human adenovirus 5 [6] = assay: Antiviral activity against Human adenovirus 5 Adenoid 75 infected in A549 cells assessed as inhibition of viral adsorption at early stage of replication treated for 1 hr during viral infection followed by replacement with fresh medium and measured after 72 hrs by MTT assay; assay type: functional, organism-based
Human alphaherpesvirus 1 [7] = assay: Antiviral activity against Human herpesvirus 1 MacIntyre infected in A549 cells assessed as reduction in virus titer treated 1 hr post viral infection followed by replacement with fresh medium with compounds and measured after 48 hrs by MTT assay; assay type: functional, organism-based; details: Human alphaherpesvirus 1, MacIntyre
Human alphaherpesvirus 1 [8] = assay: Antiviral activity against Human herpesvirus-1 MacIntyre infected in A549 cells assessed as inhibition of viral adsorption at early stage of replication treated for 1 hr during viral infection followed by replacement with fresh medium and measured after 48 hrs by MTT assay; assay type: functional, organism-based
[9] = as §1, with “Selectivity” for “Potency”, “CC50 for cytotoxicity against human A549 cells” for “acyclovir EC50”, “to” for “to test compound”, “72” for “48”; assay type: toxicity, cell-based; details: read-out: Selectivity Index
Human alphaherpesvirus 1 [10] = assay: Antiviral activity against Human herpesvirus 1 MacIntyre infected in A549 cells assessed as reduction in virus titer preincubated for 24 hrs followed by viral infection and measured after 72 hrs by microscopic analysis; assay type: functional, organism-based
Enterovirus E [11] = assay: Potency index, ratio of […] EC50 to test compound EC50 for antiviral activity against Enterovirus E LCR-4 infected in A549 cells assessed as reduction in virus titer preincubated for 24 hrs followed by viral infection and measured after 72 hrs by microscopic analysis; assay type: functional; details: time 96 hrs
Enterovirus E [12] = assay: Antiviral activity against Enterovirus E LCR-4 infected in A549 cells assessed as reduction in virus titer preincubated for 24 hrs followed by viral infection and measured after 72 hrs by microscopic analysis; assay type: functional, organism-based; details: LCR-4, A549
[13] = Selectivity index, ratio of CC50 for cytotoxicity against human A549 cells to EC50 for antiviral activity against Enterovirus E LCR-4 infected in A549 cells; assay type: toxicity, cell-based; details: read-out: Selectivity Index
[14] = as §2; assay type: cell-based, Canis lupus familiaris; details: dog, MDCK cells
Enterovirus E [15] = assay: (§4) Antiviral activity against Enterovirus E LCR-4 infected in A549 cells assessed as reduction in virus titer treated 1 hr post viral infection followed by replacement with fresh medium with compounds and measured after 72 hrs by MTT assay; assay type: functional, organism-based; details: LCR-4, A549
[16] = as §4, with “Selectivity index, ratio of CC50 for cytotoxicity against human A549 cells to EC50 for antiviral” for “Antiviral”; assay type: toxicity, cell-based; details: read-out: Selectivity Index

Structure (SMILES)	Ratio EC50 (Human alphaherpesvirus 1 [1])	CC20 (MDCK)	Activity [2]	Activity (Enterovirus E [3])	Activity (Human adenovirus 5 [4])	CC20 (A549)	CC50 at 48 h [5]	Activity (Human adenovirus 5 [6])	EC50 (Human alphaherpesvirus 1 [7])	Activity (Human alphaherpesvirus 1 [8])	selectivity ratio at 72 h [9]	Activity (Human alphaherpesvirus 1 [10])	Ratio EC50 (Enterovirus E [11])	EC50 (Enterovirus E [12])	selectivity ratio [13]	CC50 at 72 h [14]	EC50 (Enterovirus E [15])	selectivity ratio at 72 h [16]
C=C(C)[C@@H]1CC[C@]2(COC(=O)CCCC(=O)N3CCOCC3)CC[C@]3(C)[C@H](CC[C@@H]4[C@@]5(C)CC[C@H](O)C(C)(C)[C@@H]5CC[C@]43C)[C@@H]12	3	18.85 µM	inactive	inactive	inactive	18.85 µM	151 µM	inactive	18.9 µM	inactive	8	inactive	–	–	–	–	–	–
C=C(C)[C@@H]1CC[C@]2(COC(=O)c3cccc(C(=O)N4CCCCC4)c3)CC[C@]3(C)[C@H](CC[C@@H]4[C@@]5(C)CC[C@H](O)C(C)(C)[C@@H]5CC[C@]43C)[C@@H]12	–	130.89 µM	inactive	inactive	inactive	130.89 µM	536 µM	inactive	–	inactive	–	inactive	3	65.4 µM	8.2	–	–	–
C#CCNC(=O)c1ccccc1C(=O)OC[C@]12CC[C@@H](C(=C)C)[C@@H]1[C@H]1CC[C@@H]3[C@@]4(C)CC[C@H](O)C(C)(C)[C@@H]4CC[C@@]3(C)[C@]1(C)CC2	–	159.24 µM	inactive	inactive	inactive	39.81 µM	159 µM	inactive	–	inactive	–	inactive	11	19.9 µM	8	–	–	–
C#CC1(NC(=O)/C(C)=C/C(=O)OC[C@]23CC[C@@H](C(=C)C)[C@@H]2[C@H]2CC[C@@H]4[C@@]5(C)CC[C@H](O)C(C)(C)[C@@H]5CC[C@@]4(C)[C@]2(C)CC3)CCCCC1	–	54.47 µM	inactive	inactive	inactive	54.47 µM	–	inactive	–	inactive	–	inactive	–	–	–	54.5 µM	–	–
NC(=O)c1ncn([C@@H]2O[C@H](CO)[C@@H](O)[C@H]2O)n1 [RIBAVIRIN]	–	–	–	inactive	–	409.84 µM	7610 µM	inactive	–	inactive	–	–	–	–	–	–	102 µM	74.3
Nc1nc2c(ncn2COCCO)c(=O)[nH]1 [ACYCLOVIR]	–	–	–	inactive	–	196.08 µM	1560 µM	inactive	111 µM	inactive	14	–	–	–	7	–	–	–
